Source: paper PMC10536132, “Arginine Gemini-Based Surfactants for Antimicrobial and Antibiofilm Applications: Molecular Interactions, Skin-Related Anti-Enzymatic Activity and Cytotoxicity” (Molecules, 2023)
Marks after values point to notes of the source that are not given here.

Key:
[1] = Apparent pKa by direct titration with NaOH; type: physicochemical; conditions: aqueous solution, concentration above the minimum aggregation concentration; pH at semi-equivalence point
Experimental: In order to determine the ionization state of these gemini surfactants at the pH used to investigate their biological properties, the apparent acid pKa was determined for each of them. The pKap value has been determined by means of a direct titration with NaOH of an aqueous solution of each compound. The surfactant concentrations used were in all cases higher than the minimum aggregation concentration, thus avoiding possible deviations in the pK value due to the monomer–aggregate balance. The pKap values can be estimated from the pH at the semi-equivalence point that is reached when the molar ratio of protonated and non-protonated species is 1:1. In these conditions, we have that the pH = pKa.
The pKa value of each compound has been determined by means of a direct titration with NaOH of an aqueous solution of each compound. The pH was measured using the pH electrode Thermo Electron Corporation ORION 8103SC and the temperature was controlled by a thermostatic bath, Heto CBN 8-30. The pKa values can be estimated from the pH at the semi-equivalence point, which contains a 1:1 molar ratio of protonated and non-protonated species; at this point, pH = pKap.

[2] = tested on: Pseudomonas aeruginosa PAO1 biofilm; assay: Biofilm inhibition, crystal violet; type: cell-based; conditions: P. aeruginosa PAO1, 24 h contact, 2–128 μg/mL tested
Experimental: (§1) The ability of MRSA and P. aeruginosa to form biofilms on propylene surfaces in the presence of bis-Args was determined. The two bacterial cells were kept in contact with the gemini surfactants at different concentrations from 2 to 128 μg/mL for 24 h. Then, the percentage of biofilm inhibition was determined.
(§2) Antibiofilm activity was assessed against biofilm-producing strains of methicillin-resistant Staphylococcus aureus (MRSA) ATCC 43300 and Pseudomonas aeruginosa PAO1. Biofilm inhibition and eradication capacities of the gemini surfactants were evaluated against adherent bacterial biofilms grown in 96-well microtiter plates. Bacteria were grown overnight in tryptic soy agar at 37 °C for 24 h. The bacteria were suspended in lysogeny broth with glucose (1%) at 1.5 × 10^8 CFU/mL.
(§3) Biofilm inhibition procedure: 100 μL of the gemini surfactant at different concentration values was added to each well in a 96-well microplate, then, 100 μL of the diluted bacterial suspension was added to the wells. Two-fold serial dilutions of the gemini surfactants to be tested were used (2–128 μg/mL). Microtiter plates were incubated at 37 °C for 24 h. Spent growth media was then discarded and biofilm was fixed with 150 μL methanol for 10 min. After the plates were air dried, the biofilms were stained with 50 μL of 0.1 of % crystal violet for 25 min. The plates were rinsed with water and then 150 μL of 96% ethanol containing 10% acetic acid was added to all 96-well plates to dissolve the remaining crystal violet-stained biofilm. The absorbance value was recorded at 570 nm. Each assay was performed at least three times and the results were averaged.

[3] = tested on: methicillin-resistant Staphylococcus aureus (MRSA) ATCC 43300 biofilm; assay: Biofilm inhibition, crystal violet; type: cell-based; conditions: 24 h contact, 2–128 μg/mL tested
Experimental: as §1, §2, §3

[4] = tested on: Pseudomonas aeruginosa PAO1 biofilm; assay: Biofilm eradication, crystal violet; type: cell-based; conditions: P. aeruginosa PAO1, at 32 μg/mL
Experimental: (§4) The ability of these geminis to disperse and eradicate biofilms once formed on the propylene surfaces of the microtiter plates was evaluated using the same bacterial strains. […] The susceptibility of both biofilms against the tested surfactants was similar. At a low concentration of 32 μg/mL, C3(CA)2 and C3(LA)2 were able to eradicate around 60–70% of preformed biofilm; however, at this concentration, the […] hydrophobic compound, C3(OA)2, eradicated less than 30% of biofilm. At high concentrations, the eradication percentage is similar for all alkyl chains. […] In this case, at low concentrations, there is not a clear dependence between the antibiofilm properties and the spacer; however, at a high concentration, the best effectivity was obtained for the longer spacer chains.
as §2
(§5) Biofilm eradication procedure: For mature biofilm formation, 200 μL of the diluted bacterial suspension was added to each well in a 96-well microplate and incubated at 37 °C for 24 h. The wells were gently rinsed with phosphate-buffered saline (PBS) and 200 μL of the corresponding gemini surfactant solution was added to each well and incubated again at 37 °C for 24 h. Two-fold serial dilutions of the gemini surfactant were used (4–128 μg/mL). After the plates were air dried, the biofilms were stained with 50 μL of 0.1 of % crystal violet for 25 min. The plates were rinsed with water and then 150 μL of 96% ethanol containing 10% acetic acid was added to all 96-well plates to dissolve the remaining crystal violet-stained biofilm. The absorbance value was recorded at 570 nm. Each assay was conducted at least three times and the results were averaged.

[5] = tested on: methicillin-resistant Staphylococcus aureus (MRSA) ATCC 43300 biofilm; assay: Biofilm eradication, crystal violet; type: cell-based; conditions: at 32 μg/mL
Experimental: as §4, §2, §5

[6] = tested on: squamous cell carcinoma (A431); assay: Cell viability, NRU assay; type: cell-based; conditions: A431, surfactant in solution at 35.6 µg/mL, 24 h
Experimental: The immortal human keratinocyte (HaCaT) and the squamous cell carcinoma (A431) were obtained from Celltec, University of Barcelona. The cells were grown in DMEM medium (4.5 g/L glucose) supplemented with 10% (v/v) FBS, 2 mM L-glutamine, 100 U/mL of penicillin and 100 μg/mL of streptomycin at 37 °C under 5% CO2. Cells were routinely cultured in 75 cm^2 culture flasks and were trypsinized using trypsin-EDTA when reached approximately 80% of confluence.
HaCaT cells (1 × 10^5 cells/mL) and A431 cells (5 × 10^4 cells/mL) were grown at the defined densities into the central 60 wells of a 96-well microplate. Cells were incubated for 24 h under 5% CO2 at 37 °C. The medium was then removed and the cells were incubated with the surfactants (100 μL), previously diluted 1:1 (v/v), reaching a concentration of […] in DMEM medium supplemented with 5% FBS using two different colorimetric methods for quantification, as follows.
The accumulation of the neutral red dye in the lysosomes of viable, undamaged cells constitutes the basis of the neutral red uptake (NRU) assay. After the cells were incubated for 24 h with the corresponding systems at 35.6 µg/mL, the medium was removed and the surfactants´ solutions were incubated for 3 h with the NRU dye solution (50 μg/mL) dissolved in the medium without FBS and phenol red (Lonza). Cells were then washed with sterile PBS, followed by the addition of 100 μL of a solution containing 50% ethanol absolute and 1% acetic acid in distilled water to extract the non-adhered dye. The microplates were then stirred for 5 min at 25 °C to promote the dissolution. Finally, the absorbance of the resulting solutions was measured at λ = 550 nm using a Bio-Rad 550 microplate reader (Hercules, CA, USA).

[7] = set-up: method as in doi:10.1021/la981295l; conditions: cited from earlier work
[8] = set-up: method as in doi:10.1021/la981295l; conditions: cited from earlier work; remark: listed apart in the source
[9] = set-up: method as in doi:10.1021/la981295l; conditions: cited from earlier work; remark: listed apart in the source

## CCCCCCCCCCCC(=O)NC(CCCNC(=N)N)C(=O)NCCCNC(=O)C(CCCNC(=N)N)NC(=O)CCCCCCCCCCC (stereo not drawn) [C3(LA)2, Bis (N^α-lauroyl arginine 1,3-propane) diamide]
[1]
  pKap: 11.4
[2]
  concentration that inhibits biofilm formation: 32 µg/mL
[3]
  concentration that inhibits biofilm formation: 32 µg/mL
[4]
  preformed biofilm eradicated: 60–70%
[5]
  preformed biofilm eradicated: 60–70%
[6]
  cytotoxicity, in words: did not cause any apparent cytotoxicity
[7]
  CMC (mM) Conductivity: 0.5 * mM
[8]
  CMC (mM) Fluorescence: 0.4 * mM
[9]
  CMC (mM) Surface Tension: 0.005 * mM
[9]; surface tension at the cmc
  γcmc: 35 * mN/m
